Publication PMC8190356, “The Effect of the EGFR - Targeting Compound 3-[(4-Phenylpyrimidin-2-yl) Amino] Benzene-1-Sulfonamide (13f) against Cholangiocarcinoma Cell Lines” (Asian Pacific Journal of Cancer Prevention : APJCP, 2021)

Biological target: T1, tyrosine kinase of EGFR (TK-EGFR) (Homo sapiens, UniProt P00533)
T1 construct: tyrosine kinase of EGFR (TK-EGFR), recombinant protein from E. coli
Test: ADP-Glo kinase assay with recombinant TK-EGFR, […] ATP
Type: biochemical

T1 sequence (P00533 25-1210): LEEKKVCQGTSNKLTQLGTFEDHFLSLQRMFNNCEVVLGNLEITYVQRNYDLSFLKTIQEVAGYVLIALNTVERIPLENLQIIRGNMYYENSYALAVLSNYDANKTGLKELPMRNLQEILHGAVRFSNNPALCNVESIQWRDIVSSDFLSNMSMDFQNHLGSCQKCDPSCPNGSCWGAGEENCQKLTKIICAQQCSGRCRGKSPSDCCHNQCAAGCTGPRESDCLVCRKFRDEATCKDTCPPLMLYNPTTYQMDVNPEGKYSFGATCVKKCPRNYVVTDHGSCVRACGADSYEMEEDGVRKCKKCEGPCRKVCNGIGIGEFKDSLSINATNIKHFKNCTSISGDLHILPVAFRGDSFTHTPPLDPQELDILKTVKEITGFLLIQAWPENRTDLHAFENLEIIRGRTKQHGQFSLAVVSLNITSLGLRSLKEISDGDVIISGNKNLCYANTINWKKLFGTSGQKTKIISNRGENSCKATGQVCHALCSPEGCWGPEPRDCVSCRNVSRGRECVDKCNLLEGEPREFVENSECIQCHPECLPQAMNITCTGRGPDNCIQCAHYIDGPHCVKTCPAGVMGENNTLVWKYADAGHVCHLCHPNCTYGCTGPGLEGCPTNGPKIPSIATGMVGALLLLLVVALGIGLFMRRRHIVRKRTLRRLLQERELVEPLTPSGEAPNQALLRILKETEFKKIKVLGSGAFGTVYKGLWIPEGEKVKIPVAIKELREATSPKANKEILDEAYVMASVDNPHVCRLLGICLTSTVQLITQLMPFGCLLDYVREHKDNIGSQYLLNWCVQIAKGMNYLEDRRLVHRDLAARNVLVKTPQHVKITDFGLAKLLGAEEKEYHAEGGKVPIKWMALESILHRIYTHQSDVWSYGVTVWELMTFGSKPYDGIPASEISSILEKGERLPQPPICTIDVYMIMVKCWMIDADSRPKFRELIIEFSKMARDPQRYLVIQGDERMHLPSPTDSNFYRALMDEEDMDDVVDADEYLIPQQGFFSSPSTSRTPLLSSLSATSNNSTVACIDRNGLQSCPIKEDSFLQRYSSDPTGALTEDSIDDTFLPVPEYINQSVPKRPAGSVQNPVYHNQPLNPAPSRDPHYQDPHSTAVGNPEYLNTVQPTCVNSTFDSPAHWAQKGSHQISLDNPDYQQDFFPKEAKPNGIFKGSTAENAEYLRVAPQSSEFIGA

Question: With `NS(=O)(=O)c1cccc(Nc2nccc(-c3ccccc3)n2)c1` [13f, 3-[(4-phenylpyrimidin-2-yl)amino] benzene-1-sulfonamide] as the molecule, how does the IC50 read?
Answer: The IC50 was 0.0227 µM.
